Publication PMC6321172, “Analysis of Vipadenant and Its In Vitro and In Vivo Metabolites via Liquid Chromatography-Quadrupole-Time-of-Flight Mass Spectrometry” (Pharmaceutics, 2018)
Like-named read-outs stand apart in the source and are kept apart here.

What was measured:
[1] = Rat pharmacokinetic study after IV or PO administration; format: in vivo; conditions: for Cmax: read-out: C0 or Cmax; for Vd: read-out: Vss
Description: Twenty microliters of the rat pharmacokinetics samples were placed in cluster tubes. As a make-up solution, 4 μL of DMSO was added to the cluster tube and 100 μL of ACN containing ISTD (verapamil) was also added. The mixture was capped, gently shaken for approximately 1 min and was then centrifuged for 5 min at 12,000 rpm (4 °C). Following the centrifugation, 50 μL supernatant was transferred to a clean test tube and was diluted with 100 μL of distilled water. The resulting mixture was then transferred to an LC-vial and 10 μL was injected to the LC-QTOF-MS. The same procedure was also applied to the STD samples and QC samples.
Data acquisition and LC-QTOF-MS operation was conducted using Analyst® TF Version 1.6 (Sciex). MultiQuant® Version 2.1.1 (Sciex) was used for the peak integration for vipadenant quantification. PeakView® Version 2.2 and MetabolitePilot™ Version 2.0.2 were used for the structural elucidation of vipadenant metabolites. […] Pharmacokinetic parameters were calculated in a non-compartmental analysis using WinNonlin® version 8.0.0 (Certara, Princeton, NJ, USA).
Male sprague-dawley rats (300 ± 10 g) were purchased from the Samtako Biokorea Co. (Gyeonggi, Korea) and housed in groups of 3~4 per cage and given standard rodent chow. […] Rats were distributed into four different groups (three rats per group; 1 & 2 mg/kg IV group and 2 & 5 mg/kg PO group). Blood was drawn into the heparinized tubes after IV (1 and 2 mg/kg) or PO (2 and 5 mg/kg) administration and was immediately centrifuged at 10,000 rpm for 5 min. […] The supernatant of the centrifuged samples (plasma) were transferred to the clean tubes and stored at −20 °C until analysis.
During the sample preparation of the PK samples, QC samples were included for the assurance of the analytical run.

[2] = Stock solution stability assessment (1 mg/mL in DMSO); format: physicochemical; conditions: for Mean Accuracy (%), stock storage stability: DMSO stock, 6 months, −80°C
Description: (§1) Each stability assessment was carried out in blank rat plasma. Three levels of QC (low, medium and high) were used in the short-term, freeze-thaw, long-term and post-preparative stability assessments and two levels of QC (medium & high) were used in stock solution stability assessment. The short term stability assessment was carried out at room temperature (RT) over 4 h and the results obtained were compared with the control (0 min). In the long-term stability assessment, the samples kept frozen at −80 °C for 2 weeks were compared with the freshly prepared control group samples. The freeze-thaw stability was evaluated over three cycles of freezing (−80 °C) and thawing (RT). The post-preparative stability was assessed for the QC samples kept in an auto-sampler (10 °C) for 24 h. As a separate stock-solution stability assessment, the vipadenant stock-solution prepared at 1 mg/mL (DMSO) was stored at −80 °C for 6 months and its stability was evaluated. The stability test results were evaluated by confirming that the mean accuracy (%) of the nominal value which should be within ± 25% range.

[3] = In-house metabolic stability study (rat liver microsome); format: in vitro ADME; conditions: liver microsomes, read-out: in vitro intrinsic clearance
[4] = Preliminary stability assessment in rat plasma QC samples; format: physicochemical; conditions: for Mean Accuracy (%), post-preparative stability: processed rat plasma samples, 24 h, 4 °C; for Mean Accuracy (%), long-term stability: 2 weeks; for Mean Accuracy (%), long-term stability / Mean Accuracy (%), freeze-thaw stability: −80 °C; for Mean Accuracy (%), freeze-thaw stability: 3 cycles; for Mean Accuracy (%), short term stability: 4 h, RT
Description: as §1, with “The post-preparative stability was assessed for the QC samples kept in an auto-sampler (10 °C) for 24 h.” left out

[5] = male, Sprague-Dawley, plasma, rat, IV 1 mg/kg
[6] = male, Sprague-Dawley, plasma, rat, IV 2 mg/kg
[7] = male, Sprague-Dawley, plasma, rat, PO 2 mg/kg
[8] = male, Sprague-Dawley, plasma, rat, PO 5 mg/kg
[9] = rat plasma, nominal QC 15 ng/mL
[10] = rat plasma, nominal QC 165 ng/mL
[11] = rat plasma, nominal QC 1820 ng/mL

Cc1cc(Cn2nnc3c(-c4ccco4)nc(N)nc32)ccc1N [vipadenant, Vipadenant]
AUC(0-t) [1, 5]: 451 ng·h/mL | Tmax [1, 5]: 2.6 min | clearance [1, 5]: 37.8 ± 7.2 mL/min/kg | half-life [1, 5]: 48 ± 5.8 min | Cmax [1, 5]: 2210 ± 1160 ng/mL | Vd [1, 5]: 1.08 ± 0.223 L/kg | AUC(0-t) [1, 6]: 1510 ng·h/mL | Tmax [1, 6]: 2 min | clearance [1, 6]: 22.5 ± 4.3 mL/min/kg | half-life [1, 6]: 71.2 ± 8.5 min | Cmax [1, 6]: 3090 ± 222 ng/mL | Vd [1, 6]: 1.21 ± 0.174 L/kg | AUC(0-t) [1, 7]: 279 ng·h/mL | Tmax [1, 7]: 7.5 min | half-life [1, 7]: 65.2 ± 20.2 min | Cmax [1, 7]: 230 ± 88 ng/mL | AUC(0-t) [1, 8]: 887 ng·h/mL | Tmax [1, 8]: 30 min | half-life [1, 8]: 116 ± 59 min | Cmax [1, 8]: 296 ± 87.3 ng/mL | bioavailability ([1]; male, Sprague-Dawley, plasma, rat, PO 2 and 5 mg/kg vs IV 1 and 2 mg/kg, read-out: BA (average bioavailability)): 30.4 ± 8.9% | clearance (in words) ([1]; rat IV study): low to moderate clearance | Mean Accuracy (%), stock storage stability ([2]; nominal QC 165 ng/mL): 102.5% | Mean Accuracy (%), stock storage stability ([2]; nominal QC 1820 ng/mL): 95.6% | time stock solution showed stability ([2]; stock solution prepared in DMSO): 6 months | CLint scaled [3]: 20 mL/min/kg | time processed samples stable ([4]; auto-sampler storage condition (10 °C)): at least 24 h | Mean Accuracy (%), post-preparative stability ([4]; nominal QC 15 ng/mL): 114.8% | Mean Accuracy (%), post-preparative stability ([4]; nominal QC 165 ng/mL): 99.2% | Mean Accuracy (%), post-preparative stability ([4]; nominal QC 1820 ng/mL): 94.9% | Mean Accuracy (%), long-term stability [4, 9]: 111.8% | Mean Accuracy (%), long-term stability [4, 10]: 104.1% | Mean Accuracy (%), long-term stability [4, 11]: 103.7% | Mean Accuracy (%), freeze-thaw stability [4, 9]: 118.8% | Mean Accuracy (%), freeze-thaw stability [4, 10]: 88.5% | Mean Accuracy (%), freeze-thaw stability [4, 11]: 91.1% | Mean Accuracy (%), short term stability [4, 9]: 97.8% | Mean Accuracy (%), short term stability [4, 10]: 90.5% | Mean Accuracy (%), short term stability [4, 11]: 92.6% | freeze-thaw stability (in words) ([4]; rat plasma, three cycles of freeze-thawing (RT vs. −80 °C)): stable | time stable, long-term stability test ([4]; rat plasma, −80 °C storage): at least 2 weeks | time stable in rat plasma QC sample ([4]; room temperature): at least 4 h
